Test results from patent US8420633B2 (Hoffmann-La Roche Inc., priority 2010, dated 2013).
Structures can show the parent of a compound that is named as a salt.

Molecular target: T1, human V1a receptor (Homo sapiens, UniProt P37288)
T1 construct: expressed in transfected cells; host or cells: HEK293 cells, transiently transfected; membranes prepared
Assay: human V1a receptor binding (3H-Vasopressin SPA, HEK293 membranes)
Settings: 3H-Vasopressin displacement, membranes of HEK293 cells transiently transfected with human V1a; Ki from IC50 by Cheng-Prussoff; read-out: pKi (hV1a) (converted)
Description: The human V1a receptor was cloned by RT-PCR from total human liver RNA. The coding sequence was subcloned in an expression vector after sequencing to confirm the identity of the amplified sequence. […] Cell membranes were prepared from HEK293 cells transiently transfected with the expression vector and grown in 20 liter fermenters with the following protocol.
50 g of cells are resuspended in 30 ml freshly prepared ice cold Lysis buffer (50 mM HEPES, 1 mM EDTA, 10 mM magnesium dichloride adjusted to pH=7.4+complete cocktail of protease inhibitor (Roche Diagnostics)). Homogenized with Polytron for 1 min and sonicated on ice for 2×2 minutes at 80% intensity (Vibracell sonicator). The preparation is centrifuged 20 min at 500 g at 4° C., the pellet is discarded and the supernatant centrifuged 1 hour at 43,000 g at 4° C. (19,000 rpm). The pellet is resuspended in 12.5 ml Lysis buffer+12.5 ml sucrose 20% and homogenized using a Polytron for 1-2 min. The protein concentration is determined by the Bradford method and aliquots are stored at −80° C. until use. For binding studies 60 mg Yttrium silicate SPA beads (Amersham®) are mixed with an aliquot of membrane in binding buffer (50 mM Tris, 120 mM sodium chloride, 5 mM potassium chloride, 2 mM calcium dichloride, 10 mM magnesium dichloride) for 15 minutes with mixing. 50 μl of bead/membrane mixture is then added to each well of a 96 well plate, followed by 50 μl of 4 nM 3H-Vasopressin (American Radiolabeled Chemicals). For total binding measurement 100 μl of binding buffer are added to the respective wells, for non-specific binding 100 μl of 8.4 mM cold vasopressin and for compound testing 100 μl of a serial dilution of each compound in 2% dimethyl sulfoxide. The plate is incubated 1 h at room temperature, centrifuged 1 min at 1000 g and counted on a Packard Top-Count. Non-specific binding counts are subtracted from each well and data is normalized to the maximum specific binding set at 100%. To calculate an IC50 the curve is fitted using a non-linear regression model (XLfit) and the Ki is calculated using the Cheng-Prussoff equation.

T1 sequence (P37288 whole entry): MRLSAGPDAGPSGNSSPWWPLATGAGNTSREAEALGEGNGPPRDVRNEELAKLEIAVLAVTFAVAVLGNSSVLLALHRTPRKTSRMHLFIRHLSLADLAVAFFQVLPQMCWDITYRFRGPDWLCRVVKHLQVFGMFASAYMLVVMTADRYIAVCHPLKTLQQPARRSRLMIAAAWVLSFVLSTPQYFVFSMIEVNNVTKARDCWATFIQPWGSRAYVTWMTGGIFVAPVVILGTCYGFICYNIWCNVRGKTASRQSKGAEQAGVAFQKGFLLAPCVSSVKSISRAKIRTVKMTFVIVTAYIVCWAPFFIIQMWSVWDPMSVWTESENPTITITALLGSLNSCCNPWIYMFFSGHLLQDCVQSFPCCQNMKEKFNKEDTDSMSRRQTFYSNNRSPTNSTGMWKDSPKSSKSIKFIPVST

**Q.** For `N#Cc1cccc([C@H]2CC[C@H](c3nnc4n3-c3ccc(Cl)cc3CNC4)CC2)c1` [Example 26, trans-3-[4-(8-Chloro-5,6-dihydro-4H-2,3,5,10b-tetraaza-benzo[e]azulen-1-yl)-cyclohexyl]-benzonitrile hydrochloride], which Ki is on record?
**A.** 32.4 nM

**Q.** With `CN1Cc2cc(Cl)ccc2-n2c(nnc2[C@H]2CC[C@H](c3cccc(C#N)c3)CC2)C1` [Example 27, trans-3-[4-(8-Chloro-5-methyl-5,6-dihydro-4H-2,3,5,10b-tetraaza-benzo[e]azulen-1-yl)-cyclohexyl]-benzonitrile] as the compound, how does the Ki read?
**A.** 2.69 nM

**Q.** `CC(=O)N1Cc2cc(Cl)ccc2-n2c(nnc2[C@H]2CC[C@H](c3ccccc3)CC2)C1` [Example 28, trans-1-[8-Chloro-1-(4-phenyl-cyclohexyl)-4H,6H-2,3,5,10b-tetraaza-benzo[e]azulen-5-yl]-ethanone] was tested. Which Ki did it give?
**A.** 1.29 nM

**Q.** How did the Ki turn out when `CS(=O)(=O)N1Cc2cc(Cl)ccc2-n2c(nnc2[C@H]2CC[C@H](c3ccccc3)CC2)C1` [Example 29, trans-8-Chloro-5-methanesulfonyl-1-(4-phenyl-cyclohexyl)-5,6-dihydro-4H-2,3,5,10b-tetraaza-benzo[e]azulene] was run?
**A.** 1.82 nM

**Q.** With `CC(C)N1Cc2cc(Cl)ccc2-n2c(nnc2[C@H]2CC[C@H](c3ccccc3)CC2)C1` [Example 30, trans-8-Chloro-5-isopropyl-1-(4-phenyl-cyclohexyl)-5,6-dihydro-4H-2,3,5,10b-tetraaza-benzo[e]azulene] as the compound, how does the Ki read?
**A.** 1.91 nM

**Q.** For `Clc1ccc2c(c1)CN(Cc1ccccn1)Cc1nnc([C@H]3CC[C@H](c4ccccc4)CC3)n1-2` [Example 31, trans-8-Chloro-1-(4-phenyl-cyclohexyl)-5-pyridin-2-ylmethyl-5,6-dihydro-4H-2,3,5,10b-tetraaza-benzo[e]azulene], which Ki is on record?
**A.** 2.4 nM

**Q.** `OCCN1Cc2cc(Cl)ccc2-n2c(nnc2[C@H]2CC[C@H](c3ccccc3)CC2)C1` [Example 32, trans-2-[8-Chloro-1-(4-phenyl-cyclohexyl)-4H,6H-2,3,5,10b-tetraaza-benzo[e]azulen-5-yl]-ethanol] was tested. Which Ki did it give?
**A.** 1.41 nM

**Q.** `Clc1ccc2c(c1)CN(c1ccccn1)Cc1nnc([C@H]3CC[C@H](c4ccccc4)CC3)n1-2` [Example 33, trans-8-Chloro-1-(4-phenyl-cyclohexyl)-5-pyridin-2-yl-5,6-dihydro-4H-2,3,5,10b-tetraaza-benzo[e]azulene] was tested. Which Ki did it give?
**A.** 8.91 nM
